Experimental data published in PubChem BioAssay AID1918958 (Molecular Pharmacology Branch, DTP, NCI, 2023).

Tested on: NCI-H196 complex spheroid viability
Test: Anticancer human tumor NCI-H196 cell line growth inhibition [LSD1];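 also: spheroids exposed to agents for 7 days before readout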;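 as to viability, T/C: 100% = DMSO vehicle control viability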
Settings: for IC50: curve of first compound; for viability, T/C: stronger effect = lower value
Method in brief: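 Drug combinations with the LSD1 inhibitor iadademstat tested on tumor cells co-cultured as spheroids with endothelial cells and mesenchymal stem cells. Concentrations descended in half-log increments from clinical Cmax or 10 microM.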

[1] = second compound 0.1 µM, first compound 0.000316 µM
[2] = second compound 0.1 µM, first compound 0.001 µM
[3] = second compound 0.1 µM, first compound 0.00316 µM
[4] = second compound 0.1 µM, first compound 0.01 µM
[5] = second compound 0.1 µM, first compound 0.0316 µM
[6] = second compound 0.1 µM, first compound 0.1 µM
[7] = second compound 0.316 µM, first compound 0.000316 µM
[8] = second compound 0.316 µM, first compound 0.001 µM
[9] = second compound 0.316 µM, first compound 0.00316 µM
[10] = second compound 0.316 µM, first compound 0.01 µM
[11] = second compound 0.316 µM, first compound 0.0316 µM
[12] = second compound 0.316 µM, first compound 0.1 µM
[13] = second compound 1 µM, first compound 0.000316 µM
[14] = second compound 1 µM, first compound 0.001 µM
[15] = second compound 1 µM, first compound 0.00316 µM
[16] = second compound 1 µM, first compound 0.01 µM
[17] = second compound 1 µM, first compound 0.0316 µM
[18] = second compound 1 µM, first compound 0.1 µM
[19] = second compound 3.16 µM, first compound 0.000316 µM
[20] = second compound 3.16 µM, first compound 0.001 µM
[21] = second compound 3.16 µM, first compound 0.00316 µM
[22] = second compound 3.16 µM, first compound 0.01 µM
[23] = second compound 3.16 µM, first compound 0.0316 µM
[24] = second compound 3.16 µM, first compound 0.1 µM
[25] = second compound 10 µM, first compound 0.000316 µM
[26] = second compound 10 µM, first compound 0.001 µM
[27] = second compound 10 µM, first compound 0.00316 µM
[28] = second compound 10 µM, first compound 0.01 µM
[29] = second compound 10 µM, first compound 0.0316 µM
[30] = second compound 10 µM, first compound 0.1 µM

Row | SMILES | IC50 (second compound 0.1 µM) [nM] | IC50 (second compound 0.316 µM) [nM] | IC50 (second compound 1 µM) [nM] | IC50 (second compound 3.16 µM) [nM] | IC50 (second compound 10 µM) [nM] | viability, T/C [1] [%] | viability, T/C [2] [%] | viability, T/C [3] [%] | viability, T/C [4] [%] | viability, T/C [5] [%] | viability, T/C [6] [%] | viability, T/C [7] [%] | viability, T/C [8] [%] | viability, T/C [9] [%] | viability, T/C [10] [%] | viability, T/C [11] [%] | viability, T/C [12] [%] | viability, T/C [13] [%] | viability, T/C [14] [%] | viability, T/C [15] [%] | further results
1 | CC(C)CC(NC(=O)C(Cc1ccccc1)NC(=O)c1cnccn1)B(O)O (stereo not given) + NC1CC1c1ccc(-c2cccc(O)c2)cc1 | 0.36 | 0.373 | 0.392 | 0.375 | < 0.316 | 55.9 | 3.85 | 4.59 | 4.04 | 1.83 | 0.7 | 57.6 | 4.64 | 3.15 | 2.27 | 1.73 | 0.55 | 60.4 | 4.41 | 3.18 | viability, T/C [16]: 2.18%; viability, T/C [17]: 1.28%; viability, T/C [18]: 0.5%; viability, T/C [19]: 58.1%; viability, T/C [20]: 3.39%; viability, T/C [21]: 2.47%; viability, T/C [22]: 1.72%; viability, T/C [23]: 1.87%; viability, T/C [24]: 0.31%; viability, T/C [25]: 42.5%; viability, T/C [26]: 2.54%; viability, T/C [27]: 2.01%; viability, T/C [28]: 1.21%; viability, T/C [29]: 0.62%; viability, T/C [30]: 0.38%
2 | CC(C)CC(NC(=O)CNC(=O)c1cc(Cl)ccc1Cl)B1OC(=O)CC(CC(=O)O)(C(=O)O)O1 (stereo not given) + NC1CC1c1ccc(-c2cccc(O)c2)cc1 | 13.6 | 13.4 | 10.1 | 10.5 | 10.2 | 99.7 | 100 | 97.6 | 58.7 | 21.7 | 4.21 | 92.7 | 99.2 | 92.8 | 59.9 | 19 | 4.26 | 97.5 | 106 | 93.3 | viability, T/C [16]: 48.8%; viability, T/C [17]: 17%; viability, T/C [18]: 4.69%; viability, T/C [19]: 91%; viability, T/C [20]: 109%; viability, T/C [21]: 89.2%; viability, T/C [22]: 49.3%; viability, T/C [23]: 19.2%; viability, T/C [24]: 3.44%; viability, T/C [25]: 105%; viability, T/C [26]: 98.8%; viability, T/C [27]: 84.2%; viability, T/C [28]: 52.9%; viability, T/C [29]: 13.4%; viability, T/C [30]: 2.91%
